Data set [1] is described as follows: Photostability under visible light. To be noted: after 1 day of exposure to visible light, 10 μg/mL. Format: physicochemical. The procedure:
The effect of the light exposure on the degradation of ITM or IM was determined with visible light at room temperature. The ICG and ICG-loaded micelles were diluted with distilled water to a final concentration of 10 μg/mL and were loaded into a 12-well plate. The fluorescence intensity was measured for up to 6 days. After incubation, the remaining fluorescence of each sample was measured using a spectrofluorometer with excitation and emission wavelengths of 745 nm and 840 nm, respectively. For the quantitative analysis, we normalized the fluorescence signal intensity.

The nature of data set [2]: Plasma pharmacokinetic study. It counts as in vivo, BALB/c-nude mice. To be noted: 0.5 mg/kg ICG. As to the method:
Normal BALB/c-nude mice were administered intravenously with ITM or free ICG solution at an dose of 10 μg, respectively. At designed time points of 5 min, 10 min, 30 min, 1 h, 2 h, 3 h, 4 h, 8 h and 12 h post- injection, […] blood samples were collected into EDTA tubes and centrifuged at 6000 rpm for 10 min to obtain plasma. A fluorescence spectrophotometer with excitation and emission wavelengths of 745 nm and 840 nm was used to measure the ICG of the supernatant. The ICG content in the plasma was then assayed.

In data set [3] the test system is popliteal (PO) LN. Briefly: NIR fluorescence LN imaging of normal mice. To be noted: intradermal injection into right paw, ICG 1.0 mg/kg. It counts as in vivo, BALB/c nude mice. The procedure: For the SLN metastasis model, 1 × 10^7 HeLa-luc cells in 15 μL PBS were injected into the right hock of 5-week-old BALB/c-nude mice. The mice were monitored by BLI weekly to detect tumor metastases. After 1 month, tumor was about 5 mm with PO LN metastasis. HeLa-bearing mice were divided two groups randomly (n=10) and injected ITM and IM micelles via foot at equivalent ICG dose of 2 μg. At designed time points (5 min, 30 min, 1 h, 12 h and 24 h), the NIR fluorescence images in vivo were obtained. At 30 min and 1 h post injection, 2 mice from each group were randomly sacrificed and the excised main LNs were imaged. After 24 h post injection, LNs and main organs (heart, liver, spleen, lung, and kidney) were handled as described. In the same way, normal mice were divided into two groups randomly (n=5) and injected intradermally ITM or IM via foot. The NIR fluorescence images were acquired as mentioned above.

SMILES strings stand for the structures. Bounds are passed on as bounds.

For orientation: Cmax means the maximum level reached in the sampled fluid or tissue. The MRT is a mean duration of stay, worked out from the concentration-time curve. By Tmax is commonly meant the time from dosing to the highest level. In general, clearance refers to the rate of elimination divided by the concentration. Usually half-life stands for the time in which the quantity being followed falls by half. High values mean slow loss, low ones fast loss.

Consider `CC1(C)C(/C=C/C=C/C=C/C=C2\N(CCCCS(=O)(=O)O)c3ccc4ccccc4c3C2(C)C)=[N+](CCCCS(=O)(=O)[O-])c2ccc3ccccc3c21` [Free ICG, indocyanine green], for which the “fluorescence intensity remaining, of initial value” in data set [1] was “less than 50%”. Also, in data set [2] (BALB/c-nude, mouse, iv), the Cmax was found to be 134 ng/mL, the MRT was 268 min, the Tmax is 5 min and the clearance was determined as 18 mL/min/kg. In data set [2] (BALB/c-nude, mouse, iv), this compound yielded a half-life of 4 min. Also, the AUC(0-t) in data set [2] (BALB/c-nude, mouse, iv, read-out: AUC (0-12 h) in plasma (converted)) is 224 ng·h/mL. For the same compound, the V in data set [2] (i.v.) was found to be 21.358 L/kg. For the same compound, the “time within which the NIR fluorescence signal in SLN decreased quickly” value in data set [3] was at most 1 h.
